Measurements taken from patent EP4603105A1, “PHARMACEUTICAL COMPOSITION CONTAINING CYCLIC COMPOUND HAVING SELECTIVE KRAS INHIBITORY EFFECT AGAINST HRAS AND NRAS” (CHUGAI SEIYAKU KABUSHIKI KAISHA, priority 2022, dated 2024).

Key:
[1] = target: GDP-bound NRAS wild-type protein (Homo sapiens, UniProt P01111); assay: Binding to NRAS by surface plasmon resonance (SPR), KD and KD ratio to KRAS; settings: ratio of KD for GDP-bound NRAS wild-type protein to KD for KRAS
Procedure, shortened: (§1)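 SPR, 30°C: Avi-biotin RAS·GDP captured via Biotin CAPture (~100–300 RU); running buffer HBS pH 7.4, 1 mM DTT, 10 mM MgCl2, 0.01% Tween 20, 10 µM GDP, 4% DMSO. Single-cycle kinetics, 100 µL/min, 75 s injections; 1:1 model → KD.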

[2] = target: HRAS wild-type protein (Homo sapiens, UniProt P01112); assay: Binding to HRAS by surface plasmon resonance (SPR), KD and KD ratio to KRAS; settings: ratio of KD for HRAS wild-type protein to KD for KRAS
Procedure, shortened: as §1

[3] = tested on: human lung cancer strain NCI-H441; type: cell-based
Procedure, shortened: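 Proliferation was scored by […] measured after the reagent was added to cultures kept at 37°C in 5% carbon dioxide.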

Chain of GDP-bound NRAS wild-type protein (P01111 whole entry): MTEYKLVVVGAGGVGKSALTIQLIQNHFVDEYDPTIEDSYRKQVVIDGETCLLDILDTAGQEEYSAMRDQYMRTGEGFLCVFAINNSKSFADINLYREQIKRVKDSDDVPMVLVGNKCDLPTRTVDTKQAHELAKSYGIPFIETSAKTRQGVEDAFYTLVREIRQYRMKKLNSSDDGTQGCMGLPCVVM
Chain of HRAS wild-type protein (P01112 whole entry): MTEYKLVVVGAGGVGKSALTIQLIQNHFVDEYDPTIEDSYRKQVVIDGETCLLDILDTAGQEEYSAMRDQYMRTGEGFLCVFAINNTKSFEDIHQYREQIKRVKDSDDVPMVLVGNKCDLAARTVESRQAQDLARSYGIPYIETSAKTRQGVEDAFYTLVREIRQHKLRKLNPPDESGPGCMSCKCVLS

Row | SMILES | NRAS /KRAS [1] | HRAS /KRAS [2] | IC50 [3]
1 | C#CC[C@H]1C(=O)N[C@@H]([C@@H](C)CC)C(=O)N(C)CC(=O)N(C)[C@H]2C/C=C\CCN(C2=O)[C@@H](Cc2ccc(C(F)(F)F)cc2)C(=O)N(C)CC(=O)N[C@@H](CCc2cc(F)c(C(F)(F)F)c(F)c2)C(=O)N2C[C@H](OCC)C[C@H]2C(=O)NC2(CCC2)C(=O)N(C)[C@@H](C2CCCC2)C(=O)N(C)[C@H](C(=O)N(C)C)CC(=O)N1C [PP1115] | A (a compound having 10 or more and less than 20 is denoted as A) | A (a compound having 10 or more and less than 20 is denoted as A) | 29 nM
2 | CCO[C@@H]1C[C@H]2C(=O)NC3(CCC3)C(=O)N(C)[C@@H](C3CCCC3)C(=O)N(C)[C@H](C(=O)N(C)C)CC(=O)N(C)[C@@H](Cc3ccccc3)C(=O)N[C@@H]([C@@H](C)CC)C(=O)N(C)CC(=O)N(C)[C@H]3C/C=C\CCN(C3=O)[C@@H](Cc3ccc(C(F)(F)F)cc3)C(=O)N(C)CC(=O)N[C@@H](CCc3cc(F)c(C(F)(F)F)c(F)c3)C(=O)N2C1 [PP1116] | A (a compound having 10 or more and less than 20 is denoted as A) | A (a compound having 10 or more and less than 20 is denoted as A) | 19.8 nM
3 | CCO[C@@H]1C[C@H]2C(=O)NC3(CCC3)C(=O)N(C)[C@@H](C3CCCC3)C(=O)N(C)[C@H](C(=O)N(C)C)CC(=O)N(C)[C@@H](CC(C)(C)C)C(=O)N[C@@H]([C@@H](C)CC)C(=O)N(C)CC(=O)N(C)[C@H]3C/C=C\CCN(C3=O)[C@@H](Cc3ccc(C(F)(F)F)cc3)C(=O)N(C)CC(=O)N[C@@H](CCc3cc(F)c(C(F)(F)F)c(F)c3)C(=O)N2C1 [PP1117] | A (a compound having 10 or more and less than 20 is denoted as A) | A (a compound having 10 or more and less than 20 is denoted as A) | 16.5 nM
4 | CCO[C@@H]1C[C@H]2C(=O)NC3(CCC3)C(=O)N(C)[C@@H](C3CCCC3)C(=O)N(C)[C@H](C(=O)N(C)C)CC(=O)N(C)[C@@H](CSC)C(=O)N[C@@H]([C@@H](C)CC)C(=O)N(C)CC(=O)N(C)[C@H]3C/C=C\CCN(C3=O)[C@@H](Cc3ccc(C(F)(F)F)cc3)C(=O)N(C)CC(=O)N[C@@H](CCc3cc(F)c(C(F)(F)F)c(F)c3)C(=O)N2C1 [PP1119] | A (a compound having 10 or more and less than 20 is denoted as A) | A (a compound having 10 or more and less than 20 is denoted as A) | 25.5 nM
5 | CCO[C@@H]1C[C@H]2C(=O)NC3(CCC3)C(=O)N(C)[C@@H](C3CCCC3)C(=O)N(C)[C@H](C(=O)N(C)C)CC(=O)N(C)[C@@H](CC(F)F)C(=O)N[C@@H]([C@@H](C)CC)C(=O)N(C)CC(=O)N(C)[C@H]3C/C=C\CCN(C3=O)[C@@H](Cc3ccc(C(F)(F)F)cc3)C(=O)N(C)CC(=O)N[C@@H](CCc3cc(F)c(C(F)(F)F)c(F)c3)C(=O)N2C1 [PP1120] | A (a compound having 10 or more and less than 20 is denoted as A) | A (a compound having 10 or more and less than 20 is denoted as A) | 20.6 nM
6 | CCO[C@@H]1C[C@H]2C(=O)NC3(CCC3)C(=O)N(C)[C@@H](C3CCCC3)C(=O)N(C)[C@H](C(=O)N(C)C)CC(=O)N(C)[C@@H](CCC(F)F)C(=O)N[C@@H]([C@@H](C)CC)C(=O)N(C)CC(=O)N(C)[C@H]3C/C=C\CCN(C3=O)[C@@H](Cc3ccc(C(F)(F)F)cc3)C(=O)N(C)CC(=O)N[C@@H](CCc3cc(F)c(C(F)(F)F)c(F)c3)C(=O)N2C1 [PP1121] | A (a compound having 10 or more and less than 20 is denoted as A) | A (a compound having 10 or more and less than 20 is denoted as A) | 17.3 nM
